Measured values taken from patent US4293553A, “1-Phthalazone derivatives, and use thereof” (Ishikawa; Masayuki, priority 1978, dated 1981).

assay: Acute toxicity, LD50 in mice (Litchfield and Wilcoxon); settings: mouse, in vivo, po
Description: LD50 values were determined in mice and calculated according to the method of Litchfield and Wilcoxon described in J. Pharmacol. Exp. Ther., 96, 99 (1949).

Structure (SMILES) | LD50
CCOC(=O)c1c(C)cc2cnn(-c3ccccc3Cl)c(=O)c2c1C [7-ethoxycarbonyl-6,8-dimethyl-2-(o-chlorophenyl)-1-phthalazone] | 386 mg/kg
CCOC(=O)c1c(C)cc2c(CO)nn(-c3ccccc3Cl)c(=O)c2c1C [7-ethoxycarbonyl-6,8-dimethyl-2-(o-chlorophenyl)-4-hydroxymethyl-1-phthalazone] | 564 mg/kg
CCOC(=O)c1c(C)cc2cnn(-c3ccccc3F)c(=O)c2c1C [7-ethoxycarbonyl-6,8-dimethyl-2-(o-fluorophenyl)-1-phthalazone] | 450 mg/kg
CCOC(=O)c1c(C)cc2cnn(-c3ccccc3)c(=O)c2c1C [7-ethoxycarbonyl-6,8-dimethyl-2-phenyl-1-phthalazone] | 480 mg/kg
CCOC(=O)c1c(C)cc2c(CO)nn(-c3ccccc3)c(=O)c2c1C [7-ethoxycarbonyl-6,8-dimethyl-4-hydroxymethyl-2-phenyl-1-phthalazone] | 540 mg/kg
